Experimental data from ChEMBL document CHEMBL3627608, “Crystal structures of human RIP2 kinase catalytic domain complexed with ATP-competitive inhibitors: Foundations for understanding inhibitor selectivity” (Bioorg Med Chem, 2015).

Key:
[1] = target: Serine/threonine-protein kinase 38 (Homo sapiens) (UniProt Q15208); test: Inhibition of STK38 (unknown origin) at 10 uM after 120 mins P33 radiolabeled kinase activity assay
[2] = target: LIM domain kinase 1 (Homo sapiens) (UniProt P53667); test: Inhibition of LIMK1 (unknown origin) at 10 uM after 120 mins P33 radiolabeled kinase activity assay
[3] = target: Macrophage colony-stimulating factor 1 receptor (Homo sapiens) (UniProt P07333); test: Inhibition of FMS (unknown origin) at 10 uM after 120 mins P33 radiolabeled kinase activity assay
[4] = target: CDK3/Cyclin E (Homo sapiens) (UniProt P24864+Q00526); test: Inhibition of CDK3/cyclin E (unknown origin) at 10 uM after 120 mins P33 radiolabeled kinase activity assay; assay type: protein-complex assay
[5] = target: TRAF2 and NCK-interacting protein kinase (Homo sapiens) (UniProt Q9UKE5); test: Inhibition of TNIK (unknown origin) at 10 uM after 120 mins P33 radiolabeled kinase activity assay
[6] = target: Calcium/calmodulin-dependent protein kinase type II subunit beta (Homo sapiens) (UniProt Q13554); test: Inhibition of CAMK2beta (unknown origin) at 10 uM after 120 mins P33 radiolabeled kinase activity assay
[7] = target: Mast/stem cell growth factor receptor Kit (Homo sapiens) (UniProt P10721); test: Inhibition of c-Kit (unknown origin) at 10 uM after 120 mins P33 radiolabeled kinase activity assay
[8] = target: cAMP-dependent protein kinase catalytic subunit beta (Homo sapiens) (UniProt P22694); test: Inhibition of PKAcbeta (unknown origin) at 10 uM after 120 mins P33 radiolabeled kinase activity assay
[9] = target: Serine/threonine-protein kinase PAK 2 (Homo sapiens) (UniProt Q13177); test: Inhibition of PAK2 (unknown origin) at 10 uM after 120 mins P33 radiolabeled kinase activity assay
[10] = target: Serine/threonine-protein kinase SIK2 (Homo sapiens) (UniProt Q9H0K1); test: Inhibition of SIK2 (unknown origin) at 10 uM after 120 mins P33 radiolabeled kinase activity assay
[11] = target: MAP/microtubule affinity-regulating kinase 3 (Homo sapiens) (UniProt P27448); test: Inhibition of MARK3 (unknown origin) at 10 uM after 120 mins P33 radiolabeled kinase activity assay
[12] = target: Serine/threonine-protein kinase MRCK beta (Homo sapiens) (UniProt Q9Y5S2); test: Inhibition of MRCKbeta (unknown origin) at 10 uM after 120 mins P33 radiolabeled kinase activity assay
[13] = target: Dual specificity protein kinase CLK2 (Homo sapiens) (UniProt P49760); test: Inhibition of CLK2 (unknown origin) at 10 uM after 120 mins P33 radiolabeled kinase activity assay
[14] = target: T1, Non-receptor tyrosine-protein kinase TNK1 (Homo sapiens) (UniProt Q13470); test: Inhibition of TNK1 (unknown origin) at 10 uM after 120 mins P33 radiolabeled kinase activity assay
T1 sequence (whole entry): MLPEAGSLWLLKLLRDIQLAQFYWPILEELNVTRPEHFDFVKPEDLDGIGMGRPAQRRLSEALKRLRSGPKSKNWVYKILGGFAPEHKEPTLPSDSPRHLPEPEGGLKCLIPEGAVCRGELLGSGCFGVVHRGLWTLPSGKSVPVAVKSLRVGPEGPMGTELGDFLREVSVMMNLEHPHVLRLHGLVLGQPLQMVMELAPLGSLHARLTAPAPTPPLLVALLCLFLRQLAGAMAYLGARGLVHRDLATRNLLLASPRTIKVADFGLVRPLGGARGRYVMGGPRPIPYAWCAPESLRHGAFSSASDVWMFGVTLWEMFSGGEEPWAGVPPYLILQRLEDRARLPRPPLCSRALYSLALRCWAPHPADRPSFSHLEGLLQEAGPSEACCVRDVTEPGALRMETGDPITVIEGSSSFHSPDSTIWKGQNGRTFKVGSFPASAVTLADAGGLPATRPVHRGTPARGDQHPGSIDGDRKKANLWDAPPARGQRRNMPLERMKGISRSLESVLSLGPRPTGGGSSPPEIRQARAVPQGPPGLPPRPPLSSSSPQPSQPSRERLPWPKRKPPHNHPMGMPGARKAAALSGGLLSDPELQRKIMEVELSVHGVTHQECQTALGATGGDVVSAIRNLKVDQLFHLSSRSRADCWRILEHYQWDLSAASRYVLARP

[15] = target: Interleukin-1 receptor-associated kinase 1 (Homo sapiens) (UniProt P51617); test: Inhibition of IRAK1 (unknown origin) at 10 uM after 120 mins P33 radiolabeled kinase activity assay
Homo sapiens = species on record: Homo sapiens; test: Inhibition of PKCbeta1 (unknown origin) at 10 uM after 120 mins P33 radiolabeled kinase activity assay
[16] = target: Serine/threonine-protein kinase NIM1 (Homo sapiens) (UniProt Q8IY84); test: Inhibition of NIM1 (unknown origin) at 10 uM after 120 mins P33 radiolabeled kinase activity assay
[17] = target: Vascular endothelial growth factor receptor 3 (Homo sapiens) (UniProt P35916); test: Inhibition of FLT4 (unknown origin) at 10 uM after 120 mins P33 radiolabeled kinase activity assay
[18] = target: Angiopoietin-1 receptor (Homo sapiens) (UniProt Q02763); test: Inhibition of TIE2 (unknown origin) at 10 uM after 120 mins P33 radiolabeled kinase activity assay
[19] = target: Ribosomal protein S6 kinase alpha-3 (Homo sapiens) (UniProt P51812); test: Inhibition of RSK2 (unknown origin) at 10 uM after 120 mins P33 radiolabeled kinase activity assay
[20] = target: T2, TGF-beta receptor type-1 (Homo sapiens) (UniProt P36897); test: Inhibition of ALK5 (unknown origin) at 10 uM after 120 mins P33 radiolabeled kinase activity assay
T2 sequence (whole entry): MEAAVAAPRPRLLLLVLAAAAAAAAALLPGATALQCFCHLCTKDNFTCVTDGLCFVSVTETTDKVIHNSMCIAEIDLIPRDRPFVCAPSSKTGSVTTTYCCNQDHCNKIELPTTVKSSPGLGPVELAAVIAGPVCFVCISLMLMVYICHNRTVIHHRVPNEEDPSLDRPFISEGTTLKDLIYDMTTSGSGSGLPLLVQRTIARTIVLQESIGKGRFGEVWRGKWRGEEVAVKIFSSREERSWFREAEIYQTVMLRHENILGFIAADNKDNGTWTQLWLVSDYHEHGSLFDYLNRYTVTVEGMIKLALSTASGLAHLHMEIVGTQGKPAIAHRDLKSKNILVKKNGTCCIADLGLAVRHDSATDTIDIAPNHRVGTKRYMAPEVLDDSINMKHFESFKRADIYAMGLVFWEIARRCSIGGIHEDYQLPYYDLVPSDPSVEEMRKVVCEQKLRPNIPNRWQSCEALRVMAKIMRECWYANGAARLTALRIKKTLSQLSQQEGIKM

[21] = target: Serine/threonine-protein kinase Chk2 (Homo sapiens) (UniProt O96017); test: Inhibition of CHK2 (unknown origin) at 10 uM after 120 mins P33 radiolabeled kinase activity assay
[22] = target: Serine/threonine-protein kinase pim-1 (Homo sapiens) (UniProt P11309); test: Inhibition of PIM1 (unknown origin) at 10 uM after 120 mins P33 radiolabeled kinase activity assay

Serine/threonine-protein kinase SIK2 (Homo sapiens), sequence (Q9H0K1 whole entry, looked up): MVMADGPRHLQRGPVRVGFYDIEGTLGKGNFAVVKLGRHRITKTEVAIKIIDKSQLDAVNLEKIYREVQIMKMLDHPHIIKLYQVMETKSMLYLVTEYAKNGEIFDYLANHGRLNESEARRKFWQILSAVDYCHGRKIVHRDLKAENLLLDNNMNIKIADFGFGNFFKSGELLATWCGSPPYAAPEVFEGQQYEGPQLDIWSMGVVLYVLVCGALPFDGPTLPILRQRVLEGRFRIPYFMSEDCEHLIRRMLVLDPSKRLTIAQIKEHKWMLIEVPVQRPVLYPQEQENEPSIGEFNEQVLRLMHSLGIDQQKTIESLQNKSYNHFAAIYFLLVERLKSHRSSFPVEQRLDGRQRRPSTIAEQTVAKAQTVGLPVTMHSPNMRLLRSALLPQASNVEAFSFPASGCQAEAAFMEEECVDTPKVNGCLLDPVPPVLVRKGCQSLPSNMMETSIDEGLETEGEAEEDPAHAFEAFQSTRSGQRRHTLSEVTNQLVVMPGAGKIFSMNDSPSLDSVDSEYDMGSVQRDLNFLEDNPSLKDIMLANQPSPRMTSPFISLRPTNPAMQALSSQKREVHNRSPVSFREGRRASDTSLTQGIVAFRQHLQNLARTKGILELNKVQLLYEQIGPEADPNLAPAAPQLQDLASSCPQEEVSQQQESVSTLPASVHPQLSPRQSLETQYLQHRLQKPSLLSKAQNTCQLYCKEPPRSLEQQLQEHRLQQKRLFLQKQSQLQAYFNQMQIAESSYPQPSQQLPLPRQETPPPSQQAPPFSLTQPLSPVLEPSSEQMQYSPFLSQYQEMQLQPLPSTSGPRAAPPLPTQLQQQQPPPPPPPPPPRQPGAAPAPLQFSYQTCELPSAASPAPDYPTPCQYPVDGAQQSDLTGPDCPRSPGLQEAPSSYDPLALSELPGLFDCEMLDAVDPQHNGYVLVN
TRAF2 and NCK-interacting protein kinase (Homo sapiens), sequence (Q9UKE5 whole entry, looked up): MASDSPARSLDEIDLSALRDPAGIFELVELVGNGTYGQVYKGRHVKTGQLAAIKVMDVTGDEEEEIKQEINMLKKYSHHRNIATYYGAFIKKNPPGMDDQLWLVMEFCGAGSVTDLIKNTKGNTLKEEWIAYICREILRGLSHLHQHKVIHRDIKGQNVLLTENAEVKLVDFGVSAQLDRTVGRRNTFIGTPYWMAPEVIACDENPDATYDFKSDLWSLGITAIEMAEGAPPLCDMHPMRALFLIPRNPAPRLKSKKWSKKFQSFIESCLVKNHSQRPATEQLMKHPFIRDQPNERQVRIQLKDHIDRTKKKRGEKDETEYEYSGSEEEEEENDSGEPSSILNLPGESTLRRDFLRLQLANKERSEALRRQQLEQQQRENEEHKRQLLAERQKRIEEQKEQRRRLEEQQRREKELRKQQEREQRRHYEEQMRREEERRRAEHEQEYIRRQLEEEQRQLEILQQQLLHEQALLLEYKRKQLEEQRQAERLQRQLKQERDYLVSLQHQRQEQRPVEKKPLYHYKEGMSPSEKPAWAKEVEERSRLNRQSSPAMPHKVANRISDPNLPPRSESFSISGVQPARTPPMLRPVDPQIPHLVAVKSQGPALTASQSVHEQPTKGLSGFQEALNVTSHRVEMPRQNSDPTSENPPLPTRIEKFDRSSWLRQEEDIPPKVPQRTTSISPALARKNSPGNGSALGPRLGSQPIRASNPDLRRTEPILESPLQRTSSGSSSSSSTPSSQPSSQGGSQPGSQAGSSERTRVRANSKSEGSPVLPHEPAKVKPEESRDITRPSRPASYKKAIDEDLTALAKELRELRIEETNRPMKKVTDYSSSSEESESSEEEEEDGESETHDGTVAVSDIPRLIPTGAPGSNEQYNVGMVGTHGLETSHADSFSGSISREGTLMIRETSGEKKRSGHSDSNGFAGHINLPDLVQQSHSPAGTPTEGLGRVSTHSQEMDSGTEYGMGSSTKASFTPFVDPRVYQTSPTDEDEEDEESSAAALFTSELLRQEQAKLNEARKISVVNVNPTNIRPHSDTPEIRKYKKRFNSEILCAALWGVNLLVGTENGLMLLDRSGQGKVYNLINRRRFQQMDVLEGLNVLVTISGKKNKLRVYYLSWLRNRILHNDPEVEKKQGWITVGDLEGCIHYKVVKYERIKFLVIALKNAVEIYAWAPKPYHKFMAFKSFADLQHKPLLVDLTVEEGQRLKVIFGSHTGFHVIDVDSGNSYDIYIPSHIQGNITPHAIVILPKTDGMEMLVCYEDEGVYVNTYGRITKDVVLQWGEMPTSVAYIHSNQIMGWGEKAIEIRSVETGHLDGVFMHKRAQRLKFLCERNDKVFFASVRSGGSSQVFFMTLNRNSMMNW
Serine/threonine-protein kinase NIM1 (Homo sapiens), sequence (Q8IY84 whole entry): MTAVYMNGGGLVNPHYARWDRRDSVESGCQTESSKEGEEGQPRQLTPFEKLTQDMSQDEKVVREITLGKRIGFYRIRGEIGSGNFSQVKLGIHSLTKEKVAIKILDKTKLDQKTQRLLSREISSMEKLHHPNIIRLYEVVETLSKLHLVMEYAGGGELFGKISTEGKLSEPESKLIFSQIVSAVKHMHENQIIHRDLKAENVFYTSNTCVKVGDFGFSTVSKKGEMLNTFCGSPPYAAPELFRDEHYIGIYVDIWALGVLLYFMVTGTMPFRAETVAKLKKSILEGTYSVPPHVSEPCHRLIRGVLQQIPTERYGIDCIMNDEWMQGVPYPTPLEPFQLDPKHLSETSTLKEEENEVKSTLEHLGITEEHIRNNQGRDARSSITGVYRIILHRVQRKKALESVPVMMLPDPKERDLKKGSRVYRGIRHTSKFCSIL
LIM domain kinase 1 (Homo sapiens), sequence (P53667 whole entry, looked up, the tested form may be a part): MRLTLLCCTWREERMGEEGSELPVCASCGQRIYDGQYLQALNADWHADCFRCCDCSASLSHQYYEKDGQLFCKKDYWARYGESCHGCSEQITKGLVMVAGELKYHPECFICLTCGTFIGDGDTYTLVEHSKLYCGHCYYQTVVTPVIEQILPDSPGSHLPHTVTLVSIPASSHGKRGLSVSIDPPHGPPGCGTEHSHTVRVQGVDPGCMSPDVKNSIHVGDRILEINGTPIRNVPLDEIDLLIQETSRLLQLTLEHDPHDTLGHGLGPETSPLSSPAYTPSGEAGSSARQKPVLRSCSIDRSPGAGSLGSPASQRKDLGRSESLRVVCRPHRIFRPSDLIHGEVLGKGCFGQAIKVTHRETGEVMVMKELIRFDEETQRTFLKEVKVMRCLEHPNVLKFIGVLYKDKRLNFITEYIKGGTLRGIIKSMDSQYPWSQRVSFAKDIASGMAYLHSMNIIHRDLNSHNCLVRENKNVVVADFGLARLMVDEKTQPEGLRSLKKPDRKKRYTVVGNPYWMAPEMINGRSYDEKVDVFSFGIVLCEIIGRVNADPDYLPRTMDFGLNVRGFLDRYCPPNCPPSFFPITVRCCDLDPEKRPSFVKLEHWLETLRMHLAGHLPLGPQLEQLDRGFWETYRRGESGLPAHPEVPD
Dual specificity protein kinase CLK2 (Homo sapiens), sequence (P49760 whole entry, looked up): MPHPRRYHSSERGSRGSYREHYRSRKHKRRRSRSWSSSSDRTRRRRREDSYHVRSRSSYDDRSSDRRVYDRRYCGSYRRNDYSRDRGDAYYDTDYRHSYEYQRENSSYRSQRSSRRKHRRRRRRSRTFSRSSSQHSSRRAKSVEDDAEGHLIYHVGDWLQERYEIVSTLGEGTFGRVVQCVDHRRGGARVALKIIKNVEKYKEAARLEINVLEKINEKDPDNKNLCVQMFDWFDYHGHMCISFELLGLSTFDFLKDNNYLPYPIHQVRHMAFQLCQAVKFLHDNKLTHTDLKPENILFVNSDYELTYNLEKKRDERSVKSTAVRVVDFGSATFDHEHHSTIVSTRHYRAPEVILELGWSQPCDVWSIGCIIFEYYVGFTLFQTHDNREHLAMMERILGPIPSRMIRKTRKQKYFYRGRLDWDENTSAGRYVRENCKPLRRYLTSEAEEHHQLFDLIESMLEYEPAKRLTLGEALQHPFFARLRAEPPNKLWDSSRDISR
Calcium/calmodulin-dependent protein kinase type II subunit beta (Homo sapiens), sequence (Q13554 whole entry): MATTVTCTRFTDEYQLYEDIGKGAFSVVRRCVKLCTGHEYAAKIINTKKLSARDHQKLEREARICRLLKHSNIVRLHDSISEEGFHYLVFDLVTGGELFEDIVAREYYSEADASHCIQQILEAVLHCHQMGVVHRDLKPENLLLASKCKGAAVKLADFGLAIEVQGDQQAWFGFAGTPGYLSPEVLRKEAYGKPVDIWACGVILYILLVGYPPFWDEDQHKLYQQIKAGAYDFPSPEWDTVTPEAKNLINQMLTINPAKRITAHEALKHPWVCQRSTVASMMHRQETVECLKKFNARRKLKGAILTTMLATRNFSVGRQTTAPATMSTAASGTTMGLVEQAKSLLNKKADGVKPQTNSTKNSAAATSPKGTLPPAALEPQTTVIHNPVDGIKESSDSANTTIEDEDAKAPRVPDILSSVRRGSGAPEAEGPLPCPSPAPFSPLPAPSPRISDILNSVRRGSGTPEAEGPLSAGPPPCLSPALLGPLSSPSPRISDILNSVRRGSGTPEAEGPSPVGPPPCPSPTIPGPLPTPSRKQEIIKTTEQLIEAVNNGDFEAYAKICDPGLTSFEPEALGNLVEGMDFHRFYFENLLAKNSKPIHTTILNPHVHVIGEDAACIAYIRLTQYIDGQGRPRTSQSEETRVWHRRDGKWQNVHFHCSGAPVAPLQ
Serine/threonine-protein kinase 38 (Homo sapiens), sequence (Q15208 2-465 limits assumed): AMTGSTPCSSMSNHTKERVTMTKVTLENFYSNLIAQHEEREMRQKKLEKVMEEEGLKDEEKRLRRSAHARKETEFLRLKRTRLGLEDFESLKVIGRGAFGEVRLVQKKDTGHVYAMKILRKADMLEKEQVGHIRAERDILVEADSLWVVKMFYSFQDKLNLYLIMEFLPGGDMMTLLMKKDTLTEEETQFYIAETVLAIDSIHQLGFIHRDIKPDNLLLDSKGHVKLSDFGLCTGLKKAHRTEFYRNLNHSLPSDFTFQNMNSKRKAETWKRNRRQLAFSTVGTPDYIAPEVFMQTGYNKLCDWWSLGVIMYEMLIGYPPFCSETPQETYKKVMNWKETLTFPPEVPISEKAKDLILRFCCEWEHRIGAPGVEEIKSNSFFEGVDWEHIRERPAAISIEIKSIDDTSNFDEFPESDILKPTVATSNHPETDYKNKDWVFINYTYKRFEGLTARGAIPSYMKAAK

Row | inhibition [1] | inhibition [2] | inhibition [3] | inhibition [4] | inhibition [5] | inhibition [6] | inhibition [7] | inhibition [8] | inhibition [9] | inhibition [10] | inhibition [11] | inhibition [12] | inhibition [13] | inhibition [14] | inhibition [15] | inhibition (Homo sapiens) | inhibition [16] | inhibition [17] | inhibition [18] | inhibition [19] | Compound | other results
1 | 3.88% | 8.6% | 5.32% | 0.29% | 48.4% | 7.54% | 5.79% | -0.18% | 6.88% | 17% | -3.77% | 11.1% | 7.06% | 22.5% | 5.62% | 3% | 3.72% | 13.7% | 4.75% | 5.36% | COCCNC(=O)c1ccc2c(c1)nc(-c1cnc(-c3ccc(Cl)cc3)[nH]1)n2CCOC | inhibition [20]: -7.32%; inhibition [21]: -5.19%; inhibition [22]: 7.46%
2 | 27.4% | 99.2% | 43.9% | 60% | 82.6% | 8.74% | 77.7% | -0.07% | 15.8% | 97.2% | 4.8% | 14.4% | 24.5% | 95.2% | 27.6% | -3.18% | 5.74% | 99.5% | 97% | 66.8% | CS(=O)(=O)c1cccc(Nc2nccc(-c3sc(N4CCOCC4)nc3-c3cccc(NS(=O)(=O)c4c(F)cccc4F)c3)n2)c1 | inhibition [20]: 69.6%; inhibition [21]: 51.7%; inhibition [22]: 10.6%
3 | 3.87% | 75.6% | 98.2% | 49.5% | 93.9% | 13.5% | 84.9% | 55.2% | 9.28% | 19.2% | -1.36% | 16.5% | 28.8% | 89% | 99.1% | -4.39% | 4.76% | 98.9% | 69.2% | 46.3% | CC(C)(C)c1cc(NC(=O)Nc2ccc(Oc3ccncc3)cc2)no1 | inhibition [20]: -8.74%; inhibition [21]: 11.1%; inhibition [22]: 64.5%
